ChEMBL document CHEMBL2417397, “Synthesis and biological properties of new N-Mannich bases derived from 3-methyl-3-phenyl- and 3,3-dimethyl-succinimides. Part V” (Eur J Med Chem, 2013)
Active and inactive are the calls of the source. The rule behind the calls is not given here.

Test system: Mus musculus
Assay: Anticonvulsant activity in CF-1 albino mouse assessed as time of peak effect for protection against maximal electroshock-induced seizures at 30 to 300 mg/kg, ip
Type: functional
Conditions: dose mg/kg 30-300; route intraperitoneal
Compound `CC1(c2ccccc2)CC(=O)N(CN2CCN(c3ccc(Cl)c(Cl)c3)CC2)C1=O` (configuration not stated) has a Time of 4 h.

Test system: Rattus norvegicus
Assay: Anticonvulsant activity in Sprague-Dawley albino rat assessed as protection against maximal electroshock-induced seizures at 30 mg/kg, po after 0.25 hrs
Type: functional
Conditions: not given
For `CC1(c2ccccc2)CC(=O)N(CN2CCN(c3ccc(Cl)c(Cl)c3)CC2)C1=O` (configuration not stated), the Activity was “inactive”.

Test system: Vibrio harveyi
Assay: Induction of mutagenecity in Vibrio harveyi BB7X
Type: organism-based
Conditions: in vivo
With `CC1(c2ccccc2)CC(=O)N(CN2CCN(c3ccc(Cl)c(Cl)c3)CC2)C1=O` (configuration not stated) the Activity was “Non-toxic”.

Test system: Rattus norvegicus
Assay: Anticonvulsant activity in Sprague-Dawley albino rat assessed as time of peak effect for protection against maximal electroshock-induced seizures at 30 mg/kg, po
Type: functional
Conditions: not given
With `CC1(c2ccccc2)CC(=O)N(CN2CCN(c3ccc(Cl)c(Cl)c3)CC2)C1=O` (configuration not stated) the Time was 4 h.

Test system: Mus musculus
Assay: Anticonvulsant activity in CF-1 albino mouse assessed as protection against 6 Hz psychomotor seizure at 100 mg/kg, ip after 0.5 hrs
Type: functional
Conditions: not given
With `CC1(c2ccccc2)CC(=O)N(CN2CCN(c3ccc(Cl)c(Cl)c3)CC2)C1=O` (configuration not stated) the Activity was “inactive”.

Test system: Mus musculus
Assay: Anticonvulsant activity in CF-1 albino mouse assessed as protection against 6 Hz psychomotor seizure at 100 mg/kg, ip after 2 hrs
Type: functional
Conditions: not given
For `CC1(c2ccccc2)CC(=O)N(CN2CCN(c3ccc(Cl)c(Cl)c3)CC2)C1=O` (configuration not stated), the Activity was “inactive”.

Test system: Rattus norvegicus
Assay: Neurotoxicity in Sprague-Dawley albino rat assessed as motor impairment at 30 mg/kg, po
Type: toxicity, organism-based
Parameters: dose 30 mg/kg, route oral
Conditions: in vivo
In the case of `CC1(c2ccccc2)CC(=O)N(CN2CCN(c3ccc(Cl)c(Cl)c3)CC2)C1=O` (configuration not stated), the Activity is reported as “Non-toxic”.

Test system: Mus musculus
Assay: Anticonvulsant activity in CF-1 albino mouse assessed as protection against 6 Hz psychomotor seizure at 100 mg/kg, ip after 4 hrs
Type: functional
Conditions: not given
For `CC1(c2ccccc2)CC(=O)N(CN2CCN(c3ccc(Cl)c(Cl)c3)CC2)C1=O` (configuration not stated), the Activity was “inactive”.

Test system: Mus musculus
Assay: Neurotoxicity in CF-1 albino mouse at 300 mg/kg, ip after 4 hrs by rotarod test
Type: toxicity, organism-based
Parameters: dose 300 mg/kg, route intraperitoneal
Conditions: in vivo
With `CC1(c2ccccc2)CC(=O)N(CN2CCN(c3ccc(Cl)c(Cl)c3)CC2)C1=O` (configuration not stated) the Activity was “Non-toxic”.

Test system: Mus musculus
Assay: Anticonvulsant activity in CF-1 albino mouse assessed as protection against 6 Hz psychomotor seizure at 100 mg/kg, ip after 1 hr
Type: functional
Conditions: route intraperitoneal
With `CC1(c2ccccc2)CC(=O)N(CN2CCN(c3ccc(Cl)c(Cl)c3)CC2)C1=O` (configuration not stated) the Activity was 25%.

Organism: Rattus norvegicus
Assay: Protective index, ratio of TD50 for Sprague-Dawley albino rat by rotarod test to ED50 for Sprague-Dawley albino rat
Type: functional
Conditions: not given
With `CC1(c2ccccc2)CC(=O)N(CN2CCN(c3ccc(Cl)c(Cl)c3)CC2)C1=O` (configuration not stated) the “Ratio TD50/ED50” value was 11.09.

Test system: Vibrio harveyi
Assay: Induction of mutagenecity in Vibrio harveyi BB7M
Type: organism-based
Conditions: in vivo
With `CC1(c2ccccc2)CC(=O)N(CN2CCN(c3ccc(Cl)c(Cl)c3)CC2)C1=O` (configuration not stated) the Activity was “Toxic”.

Test system: Rattus norvegicus
Assay: Anticonvulsant activity in Sprague-Dawley albino rat assessed as protection against maximal electroshock-induced seizures at 30 mg/kg, po after 4 hrs
Type: functional
Conditions: not given
With `CC1(c2ccccc2)CC(=O)N(CN2CCN(c3ccc(Cl)c(Cl)c3)CC2)C1=O` (configuration not stated) the Activity was “Active”.

Test system: not listed separately
Assay: Neurotoxicity in po dosed Sprague-Dawley albino rat at 30 mg/kg, po after 0.25 to 4 hrs by rotarod test
Type: toxicity, organism-based
Parameters: dose 30 mg/kg, route oral
Conditions: in vivo
Compound `CC1(c2ccccc2)CC(=O)N(CN2CCN(c3ccc(Cl)c(Cl)c3)CC2)C1=O` (configuration not stated) has a TD50 of 168 mg/kg.

Test system: not listed separately
Assay: Neurotoxicity in ip dosed CF-1 albino mouse at 30 to 300 mg/kg, ip after 0.5 to 4 hrs
Type: toxicity, organism-based
Parameters: route intraperitoneal
Conditions: CF-1, mouse, in vivo
Work on `CC1(c2ccccc2)CC(=O)N(CN2CCN(c3ccc(Cl)c(Cl)c3)CC2)C1=O` (configuration not stated) yielded a TD50 greater than 500 mg/kg.

Test system: Mus musculus
Assay: Anticonvulsant activity in CF-1 albino mouse assessed as protection against 6 Hz psychomotor seizure at 100 mg/kg, ip after 0.25 to 4 hrs
Type: functional
Conditions: route intraperitoneal
`CC1(c2ccccc2)CC(=O)N(CN2CCN(c3ccc(Cl)c(Cl)c3)CC2)C1=O` (configuration not stated) showed an Activity of 50%.

Test system: not listed separately
Assay: Neurotoxicity in ip dosed CF-1 albino mouse after 0.5 hrs by rotarod test
Type: toxicity, organism-based
Conditions: CF-1, mouse, in vivo
Compound `CC1(c2ccccc2)CC(=O)N(CN2CCN(c3ccc(Cl)c(Cl)c3)CC2)C1=O` (configuration not stated) has a TD50 at 0.5 h of 300 mg/kg.

Target: Sodium channel protein type 2 subunit alpha (Homo sapiens) (UniProt Q99250)
Sequence (Q99250 whole entry, looked up): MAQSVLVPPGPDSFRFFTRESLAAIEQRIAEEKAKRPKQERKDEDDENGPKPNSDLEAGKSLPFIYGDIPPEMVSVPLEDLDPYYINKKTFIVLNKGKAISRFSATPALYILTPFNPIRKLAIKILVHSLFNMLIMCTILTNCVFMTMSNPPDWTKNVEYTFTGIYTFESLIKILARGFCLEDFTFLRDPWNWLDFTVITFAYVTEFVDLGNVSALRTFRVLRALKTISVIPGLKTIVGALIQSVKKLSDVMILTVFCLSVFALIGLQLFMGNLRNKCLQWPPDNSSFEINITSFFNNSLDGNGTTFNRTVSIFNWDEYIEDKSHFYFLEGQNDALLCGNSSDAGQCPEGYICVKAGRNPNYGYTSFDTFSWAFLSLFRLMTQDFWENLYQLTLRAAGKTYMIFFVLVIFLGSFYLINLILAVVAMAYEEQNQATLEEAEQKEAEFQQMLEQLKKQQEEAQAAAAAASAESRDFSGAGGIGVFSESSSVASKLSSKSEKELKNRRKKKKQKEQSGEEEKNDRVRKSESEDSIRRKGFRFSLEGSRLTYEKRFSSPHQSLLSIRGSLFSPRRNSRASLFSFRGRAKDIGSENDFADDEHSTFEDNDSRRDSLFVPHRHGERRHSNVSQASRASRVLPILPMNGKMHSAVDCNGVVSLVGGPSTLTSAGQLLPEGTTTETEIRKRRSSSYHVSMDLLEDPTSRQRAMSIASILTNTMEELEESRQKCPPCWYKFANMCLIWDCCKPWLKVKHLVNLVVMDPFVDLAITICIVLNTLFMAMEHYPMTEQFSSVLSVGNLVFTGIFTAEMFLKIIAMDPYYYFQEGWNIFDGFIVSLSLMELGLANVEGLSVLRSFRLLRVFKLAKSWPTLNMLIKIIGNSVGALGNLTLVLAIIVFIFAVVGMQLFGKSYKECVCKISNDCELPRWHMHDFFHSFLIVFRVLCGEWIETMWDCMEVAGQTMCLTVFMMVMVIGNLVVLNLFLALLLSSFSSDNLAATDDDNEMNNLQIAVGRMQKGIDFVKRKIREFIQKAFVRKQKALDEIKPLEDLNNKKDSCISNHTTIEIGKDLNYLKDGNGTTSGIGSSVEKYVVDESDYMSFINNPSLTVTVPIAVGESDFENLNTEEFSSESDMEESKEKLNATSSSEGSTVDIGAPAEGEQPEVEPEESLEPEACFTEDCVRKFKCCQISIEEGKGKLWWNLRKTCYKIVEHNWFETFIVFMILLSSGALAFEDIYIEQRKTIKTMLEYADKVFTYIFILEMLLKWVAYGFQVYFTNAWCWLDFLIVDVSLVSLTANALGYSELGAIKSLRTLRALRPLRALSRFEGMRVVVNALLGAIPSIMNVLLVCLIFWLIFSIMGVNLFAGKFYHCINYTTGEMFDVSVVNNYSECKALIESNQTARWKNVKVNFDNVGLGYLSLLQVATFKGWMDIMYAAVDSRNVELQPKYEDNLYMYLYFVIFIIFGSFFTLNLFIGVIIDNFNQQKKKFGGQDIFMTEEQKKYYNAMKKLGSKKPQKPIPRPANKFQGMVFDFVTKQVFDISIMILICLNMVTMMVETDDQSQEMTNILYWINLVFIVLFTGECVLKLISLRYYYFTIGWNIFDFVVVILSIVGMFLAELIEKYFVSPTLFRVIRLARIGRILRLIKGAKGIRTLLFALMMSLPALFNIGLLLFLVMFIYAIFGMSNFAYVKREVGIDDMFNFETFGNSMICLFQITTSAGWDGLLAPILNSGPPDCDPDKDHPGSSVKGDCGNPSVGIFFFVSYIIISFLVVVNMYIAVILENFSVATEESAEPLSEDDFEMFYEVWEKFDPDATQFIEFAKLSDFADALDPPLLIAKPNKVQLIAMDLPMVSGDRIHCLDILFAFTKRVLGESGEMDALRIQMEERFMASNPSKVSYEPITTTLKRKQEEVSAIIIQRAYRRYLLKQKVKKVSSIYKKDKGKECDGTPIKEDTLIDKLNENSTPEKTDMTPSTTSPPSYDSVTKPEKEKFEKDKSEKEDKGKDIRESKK
Assay: Inhibition of NaV1.2 channel (unknown origin) at 10 uM by electrophysiology
Conditions: not given
Work on `CC1(c2ccccc2)CC(=O)N(CN2CCN(c3ccc(Cl)c(Cl)c3)CC2)C1=O` (configuration not stated) yielded an inhibition of 58.6%.

Test system: Rattus norvegicus
Assay: Anticonvulsant activity in Sprague-Dawley albino rat assessed as protection against maximal electroshock-induced seizures at 30 mg/kg, po after 0.5 hrs
Type: functional
Conditions: not given
With `CC1(c2ccccc2)CC(=O)N(CN2CCN(c3ccc(Cl)c(Cl)c3)CC2)C1=O` (configuration not stated) the Activity was “inactive”.

Test system: Mus musculus
Assay: Anticonvulsant activity in ip dosed CF-1 albino mouse assessed as protection against maximal electroshock-induced seizures after 4 hrs
Type: functional
Conditions: not given
Work on `CC1(c2ccccc2)CC(=O)N(CN2CCN(c3ccc(Cl)c(Cl)c3)CC2)C1=O` (configuration not stated) yielded an MED50 of 30 mg/kg.

Test system: Vibrio harveyi
Assay: Induction of mutagenecity in Vibrio harveyi BB7XM
Type: organism-based
Conditions: in vivo
With `CC1(c2ccccc2)CC(=O)N(CN2CCN(c3ccc(Cl)c(Cl)c3)CC2)C1=O` (configuration not stated) the Activity was “Toxic”.

Test system: Rattus norvegicus
Assay: Anticonvulsant activity in Sprague-Dawley albino rat assessed as protection against maximal electroshock-induced seizures at 30 mg/kg, po after 1 hr
Type: functional
Conditions: not given
For `CC1(c2ccccc2)CC(=O)N(CN2CCN(c3ccc(Cl)c(Cl)c3)CC2)C1=O` (configuration not stated), the Activity was “inactive”.

Test system: Rattus norvegicus
Assay: Anticonvulsant activity in po dosed Sprague-Dawley albino rat assessed as protection against maximal electroshock-induced seizures after 0.25 to 4 hrs
Type: functional
Conditions: not given
Work on `CC1(c2ccccc2)CC(=O)N(CN2CCN(c3ccc(Cl)c(Cl)c3)CC2)C1=O` (configuration not stated) yielded an ED50 of 15.1 mg/kg.

Test system: Mus musculus
Assay: Anticonvulsant activity in CF-1 albino mouse assessed as protection against maximal electroshock-induced seizures at 300 mg/kg, ip after 0.5 hrs
Type: functional, organism-based
Parameters: dose 300 mg/kg
Conditions: not given
With `CC1(c2ccccc2)CC(=O)N(CN2CCN(c3ccc(Cl)c(Cl)c3)CC2)C1=O` (configuration not stated) the Activity was “inactive”.

Test system: Mus musculus
Assay: Anticonvulsant activity in CF-1 albino mouse assessed as protection against 6 Hz psychomotor seizure at 100 mg/kg, ip after 0.25 hrs
Type: functional
Conditions: route intraperitoneal
In the case of `CC1(c2ccccc2)CC(=O)N(CN2CCN(c3ccc(Cl)c(Cl)c3)CC2)C1=O` (configuration not stated), the Activity is reported as 25%.

Target: Sodium channel protein type 2 subunit alpha (Homo sapiens) (UniProt Q99250)
Assay: Inhibition of NaV1.2 channel (unknown origin) at 1 uM by electrophysiology
Conditions: not given
`CC1(c2ccccc2)CC(=O)N(CN2CCN(c3ccc(Cl)c(Cl)c3)CC2)C1=O` (configuration not stated) showed an inhibition of 15.1%.

Test system: Vibrio harveyi
Assay: Induction of mutagenecity in Vibrio harveyi BB7
Type: organism-based
Conditions: in vivo
With `CC1(c2ccccc2)CC(=O)N(CN2CCN(c3ccc(Cl)c(Cl)c3)CC2)C1=O` (configuration not stated) the Activity was “Non-toxic”.

Test system: Rattus norvegicus
Assay: Anticonvulsant activity in Sprague-Dawley albino rat assessed as protection against maximal electroshock-induced seizures at 30 mg/kg, po after 2 hrs
Type: functional
Conditions: not given
`CC1(c2ccccc2)CC(=O)N(CN2CCN(c3ccc(Cl)c(Cl)c3)CC2)C1=O` (configuration not stated) gave an Activity of 50%.

Target: Sodium channel protein type 2 subunit alpha (Homo sapiens) (UniProt Q99250)
Assay: Inhibition of NaV1.2 channel (unknown origin) at 100 uM by electrophysiology
Conditions: not given
`CC1(c2ccccc2)CC(=O)N(CN2CCN(c3ccc(Cl)c(Cl)c3)CC2)C1=O` (configuration not stated) showed an inhibition of 96.7%.

Test system: Mus musculus
Assay: Anticonvulsant activity in ip dosed CF-1 albino mouse assessed as protection against maximal electroshock-induced seizures after 0.5 to 4 hrs
Type: functional
Conditions: not given
Work on `CC1(c2ccccc2)CC(=O)N(CN2CCN(c3ccc(Cl)c(Cl)c3)CC2)C1=O` (configuration not stated) yielded an ED50 of 37.3 mg/kg.

Organism: Mus musculus
Assay: Protective index, ratio of TD50 for CF-1 albino mouse by rotarod test to ED50 for CF-1 albino mouse
Type: functional
Conditions: not given
For `CC1(c2ccccc2)CC(=O)N(CN2CCN(c3ccc(Cl)c(Cl)c3)CC2)C1=O` (configuration not stated), the “Ratio TD50/ED50” value was greater than 13.41.

Target: Sodium channel protein type 2 subunit alpha (Homo sapiens) (UniProt Q99250)
Assay: Inhibition of NaV1.2 channel (unknown origin) at 0.1 uM by electrophysiology
Conditions: not given
Compound `CC1(c2ccccc2)CC(=O)N(CN2CCN(c3ccc(Cl)c(Cl)c3)CC2)C1=O` (configuration not stated) has an inhibition of 3.08%.
